Source: patent publication US20070254903A1, “Novel Spiroindoline or Spiroisoquinoline Compounds, Methods of Use and Compositions Thereof” (ARENA PHARMACEUTICALS, INC., priority 2003, published 2007)

Key:
rats = experiment: Measurement of blood pressure in rats (telemetry); format: in vivo, rat; conditions: conscious rats, IP injection, about 120 minutes after injection; FIG. 6
Experimental: Cardiac parameters were measured by small transmitting devices, (Data Sciences PhysioTel Telemetry devices), implanted in rats. The implanted transmitting devices were used to measure blood pressure in freely moving conscious animals. There are no external connections or tethering devices that can inhibit animal movement and induce unnecessary stress, which can affect the outcome of a study.
This procedure was performed under modified aseptic conditions. Rats were anesthetized with Isoflurane gas that ranged in concentration from 1.5-2.0%. A cardiac telemetry device was implanted into the peritoneal cavity with a pressure sensing catheter situated no more than 2 cm inside the descending aorta. This was accomplished as follows: The rat was shaved and the incision site was prepared with an iodine solution. The rat was then placed on a heating pad to maintain a constant body temp of 38±0.5° C., and covered with a sterile drape. A 6 cm midline abdominal incision was made to provide access to the implantation area. […] The rats were monitored for 7 days to ensure proper recovery.
On the test day, injections with either vehicle or with test compound were administered via IP injection in volumes of ˜250 μl. Animals were monitored with a resolution of approximately one measurement/min for 60 minutes before injection of vehicle or compound and for about 120 minutes after injection.

[1] = test system: isolated adult rat hearts; experiment: Ischemia-Reperfusion Assay 1 (Langendorff apparatus); conditions: 10 μM; 30 min ischemia, 30 min reperfusion; compared to vehicle; FIG. 2
Experimental: Male Sprague-Dawley rats (300-350 g body weight) were anesthetized with pentobarbital sodium (50 mg/kg IP) then heparin (400 IU IP) was administered 10 minutes prior to surgery. The chest wall was opened and the heart was rapidly excised and immediately placed into ice-cold Krebs-Henseleit (KH) buffer (118 mM NaCl, 4.7 mM KCl, 1.2 mM MgSO4, 1.2 mM KH2PO4, 1.5 mM CaCl2, 25 mM NaHCO3, 11 mM glucose, 1 mM pyruvate, and 0.005 mM EDTA) to produce cardiac arrest. The aorta was then cannulated and the heart retrogradely perfused with KH buffer maintained at 37° C. in a reservoir bubbled with 95% O2/5% CO2 (pH7.4) on the Langendorff apparatus at a constant pressure of 80 mmHg. Myocardial temperature was maintained at 37° C. by partially submerging the heart into a water-jacketed chamber filled with KH buffer. A water filled latex balloon attached to a metal cannula and inserted into the left ventricle via the mitral valve and connected to a pressure transducer (Powerlab, ADInstruments, Inc) was used for measurement of left ventricular pressure. The balloon was initially inflated to an end-diastolic pressure of 10 mmHg. […] The difference between peak-systolic and end diastolic pressures, or left ventricular developed pressure (LVDP) was calculated as an index of contractile function and measured just prior to ischemia and at the end of reperfusion. […]

With `C=CCN1CCC2(CC1)CN(C(=O)c1cccc(F)c1F)c1ccc(F)cc12` [Compound 75, 1′-(allyl)-1,2-dihydro-5-fluoro-1-(2,3-difluoro-benzoyl)-spiro[3H-indole-3,4′-piperidine]] the blood pressure change (rats) was “did not result in a significant change in blood pressure” and the “percent recovery of left ventricle function” value [1] was “significant increase in percent recovery of left ventricle function”.
